Data from the NIST ThermoML archive (doi:10.1021/je100175j).

Columns and labels:
[1] = Molar enthalpy of transition or fusion; conditions: Crystal; DSC

NC(=O)c1ccccc1 [benzamide]
Conditions | Molar enthalpy of transition or fusion [kcal/mol]
[1] | 5.54

Conditions | vapor or sublimation pressure [kPa]
324.11 K, Crystal, Calculated from knudsen effusion weight loss | 0.000108
326.19 K, Crystal, Calculated from knudsen effusion weight loss | 0.000136
328.19 K, Crystal, Calculated from knudsen effusion weight loss | 0.000169
330.1 K, Crystal, Calculated from knudsen effusion weight loss | 0.000215
332.16 K, Crystal, Calculated from knudsen effusion weight loss | 0.000267
334.18 K, Crystal, Calculated from knudsen effusion weight loss | 0.000332
336.1 K, Crystal, Calculated from knudsen effusion weight loss | 0.000415
338.17 K, Crystal, Calculated from knudsen effusion weight loss | 0.000513
340.19 K, Crystal, Calculated from knudsen effusion weight loss | 0.000634
342.11 K, Crystal, Calculated from knudsen effusion weight loss | 0.000794
344.18 K, Crystal, Calculated from knudsen effusion weight loss | 0.000981
344.8 K, Crystal, Closed cell (Static) method | 0.0011
346.18 K, Crystal, Calculated from knudsen effusion weight loss | 0.001205
346.78 K, Crystal, Closed cell (Static) method | 0.00135
348.77 K, Crystal, Closed cell (Static) method | 0.00166
350.76 K, Crystal, Closed cell (Static) method | 0.00204
352.74 K, Crystal, Closed cell (Static) method | 0.00247
354.72 K, Crystal, Closed cell (Static) method | 0.00301
356.71 K, Crystal, Closed cell (Static) method | 0.00366
358.69 K, Crystal, Closed cell (Static) method | 0.00438
360.68 K, Crystal, Closed cell (Static) method | 0.00534
362.68 K, Crystal, Closed cell (Static) method | 0.00631
364.64 K, Crystal, Closed cell (Static) method | 0.00769
366.62 K, Crystal, Closed cell (Static) method | 0.00906
368.6 K, Crystal, Closed cell (Static) method | 0.01095
370.59 K, Crystal, Closed cell (Static) method | 0.01299
372.59 K, Crystal, Closed cell (Static) method | 0.01556
374.55 K, Crystal, Closed cell (Static) method | 0.01829
376.53 K, Crystal, Closed cell (Static) method | 0.02177
378.52 K, Crystal, Closed cell (Static) method | 0.02586
380.43 K, Liquid, Closed cell (Static) method | 0.04263
380.48 K, Crystal, Closed cell (Static) method | 0.03068
382.43 K, Liquid, Closed cell (Static) method | 0.0481
382.47 K, Crystal, Closed cell (Static) method | 0.03596
384.38 K, Liquid, Closed cell (Static) method | 0.05455
384.44 K, Crystal, Closed cell (Static) method | 0.04227
386.42 K, Crystal, Closed cell (Static) method | 0.04949
386.56 K, Liquid, Closed cell (Static) method | 0.06285
388.3 K, Liquid, Closed cell (Static) method | 0.0702
388.4 K, Crystal, Closed cell (Static) method | 0.058
390.38 K, Crystal, Closed cell (Static) method | 0.06796
390.51 K, Liquid, Closed cell (Static) method | 0.08051
392.28 K, Liquid, Closed cell (Static) method | 0.0897
392.32 K, Crystal, Closed cell (Static) method | 0.07856
394.32 K, Crystal, Closed cell (Static) method | 0.09224
394.51 K, Liquid, Closed cell (Static) method | 0.102
396.37 K, Liquid, Closed cell (Static) method | 0.1144
398.34 K, Liquid, Closed cell (Static) method | 0.129
400.4 K, Liquid, Closed cell (Static) method | 0.1453
402.25 K, Liquid, Closed cell (Static) method | 0.1597
404.42 K, Liquid, Closed cell (Static) method | 0.1805
406.32 K, Liquid, Closed cell (Static) method | 0.1992
408.4 K, Liquid, Closed cell (Static) method | 0.2257
410.17 K, Liquid, Closed cell (Static) method | 0.2479
412.21 K, Liquid, Closed cell (Static) method | 0.279
414.31 K, Liquid, Closed cell (Static) method | 0.3088
416.23 K, Liquid, Closed cell (Static) method | 0.3462
418.37 K, Liquid, Closed cell (Static) method | 0.3819
420.28 K, Liquid, Closed cell (Static) method | 0.4246
422.2 K, Liquid, Closed cell (Static) method | 0.4667
424.23 K, Liquid, Closed cell (Static) method | 0.5208
426.18 K, Liquid, Closed cell (Static) method | 0.5676
428.17 K, Liquid, Closed cell (Static) method | 0.6262
430.15 K, Liquid, Closed cell (Static) method | 0.6836
432.17 K, Liquid, Closed cell (Static) method | 0.7596
434.17 K, Liquid, Closed cell (Static) method | 0.8264
436.2 K, Liquid, Closed cell (Static) method | 0.922
438.2 K, Liquid, Closed cell (Static) method | 1.002

Conditions | Triple point temperature [K]
Crystal, DTA | 401.34
